Measurements from patent publication US12258344B2, “Azaaromatic amide derivatives for the treatment of cancer” (SHENZHEN FORWARD PHARMACEUTICALS CO., LTD., priority 2019, dated 2025).
pIC50: −log10 of the molar value.

Tests used:
Assay type in all cases: cell-based
BaF3 (EGFR-L861Q) = BaF3 (EGFR-L861Q) (Homo sapiens, UniProt P00533, L861Q, cells depend on it); test: Test 8: BaF3 (EGFR-L861Q) cell proliferation test; settings: 72 hours, Cell Titer-Glo, read-out: Test 8 - IC50
Protocol: Test 8: BaF3 (EGFR-L8610) Cell Proliferation Test
BaF3 (EGFR-L861Q) was cultured in RPMI1640 medium containing 10% fetal bovine serum and 2 mM glutamine. The cells were grown at 37° C. in a humidified incubator with 5% CO2.
(§1) The number of viable cells in the culture was measured according to the protocol described in Promega's Cell Titer-Glo Luminescent cell Viability Assay (Promega catalog number #G7570). 90 μl of cells (3,000 cells/well) were cultured in growth medium in a Corning black transparent bottom 96-well plate, and cultured in a 5% CO2 humidified incubator at 37° C. overnight. The compound serially diluted in 100% DMSO was added to the cells using a pipette, and the cells were incubated for another 72 hours. 100 μl of the mixed Cell Titer-Glo reagent was added to the cells in the 96-well culture plate to lyse the cells and mix gently. Subsequently, the […] was detected on the Envision microplate detector to obtain the data of each compound. Finally, the data was input into a suitable software package (such as Prism) for curve fitting analysis.

BaF3 (HER2-G776insVC) = BaF3 (HER2-G776insVC) (Homo sapiens, UniProt P04626, cells depend on it, form not given); test: Test 11: BaF3 (HER2-G776insVC) cell proliferation test; settings: 72 hours, Cell Titer-Glo, read-out: Test 11 - IC50
Protocol: Test 11: BaF3 (HER2-G776insVC) Cell Proliferation Test
The engineered cell line BaF3 (HER2-G776insVC) was constructed by the inventor himself (for the method of cell line construction, see Jingrui Jiang et al., Cancer Res. 2005 Oct. 1; 65 (19): 8964-74; Jacqulyne P. Robichaux et al., Nat Med. 2018 May; 24 (5): 638-646). BaF3 (HER2-G776insVC) was cultured in RPMI1640 medium containing 10% fetal bovine serum and 2 mM glutamine. The cells were grown at 37° C. in a humidified incubator with 5% CO2.
as §1

[1] = system: NCI-H1975 (EGFR L858R/T790M double mutant); test: Test 1: EGFR L858R/T790M (EGFR double mutant) cell proliferation test; settings: Homo sapiens; NCI-H1975 cells, 72 hours, Cell Titer-Glo
Protocol: Test 1: EGFR L858R/T790M (EGFR Double Mutant) Cell Proliferation Test
The human lung cell line NCI-H1975 (EGFR L858R/T790M double mutant) was obtained from the American Type Culture Collection. NCI-H1975 cells were cultured in RPMI1640 medium containing 10% fetal bovine serum and 2 mM glutamine. The cells were grown at 37° C. in a humidified incubator with 5% CO2.
as §1, with “(8,000” for “(3,000”

BaF3 (EGFR-S768I) = BaF3 (EGFR-S768I) (Homo sapiens, UniProt P00533, S768I, cells depend on it); test: Test 7: BaF3 (EGFR-S768I) cell proliferation test; settings: 72 hours, Cell Titer-Glo, read-out: Test 7 - IC50
Protocol: Test 7: BaF3 (EGFR-S768I) Cell Proliferation Test
BaF3 (EGFR-S768I) was cultured in RPMI1640 medium containing 10% fetal bovine serum and 2 mM glutamine. The cells were grown at 37° C. in a humidified incubator with 5% CO2.
as §1

BaF3 (EGFR-N771insH) = BaF3 (EGFR-N771insH) (Homo sapiens, UniProt P00533, INS771H, cells depend on it); test: Test 5: BaF3 (EGFR-N771insH) cell proliferation test; settings: 72 hours, Cell Titer-Glo, read-out: Test 5 - IC50
Protocol: Test 5: BaF3 (EGFR-N771insH) Cell Proliferation Test
BaF3 (EGFR-N771insH) was cultured in RPMI1640 medium containing 10% fetal bovine serum and 2 mM glutamine. The cells were grown at 37° C. in a humidified incubator with 5% CO2.
as §1

BaF3 (HER2-A775insYVMA) = BaF3 (HER2-A775insYVMA) (Homo sapiens, UniProt P04626, DUP772-775, cells depend on it); test: Test 9: BaF3 (HER2-A775insYVMA) cell proliferation test; settings: 72 hours, Cell Titer-Glo, read-out: Test 9 - IC50
Protocol: Test 9: BaF3 (HER2-A775insYVMA) Cell Proliferation Test
BaF3 (HER2-A775insYVMA) was cultured in RPMI1640 medium containing 10% fetal bovine serum and 2 mM glutamine. The cells were grown at 37° C. in a humidified incubator with 5% CO2.
as §1

BaF3 (EGFR-A763insFQEA) = BaF3 (EGFR-A763insFQEA) (Homo sapiens, UniProt P00533, INS763FQEA, cells depend on it); test: Test 3: BaF3 (EGFR-A763insFQEA) cell proliferation test; settings: 72 hours, Cell Titer-Glo, read-out: Test 3 - IC50
Protocol: Test 3: BaF3 (EGFR-A763insFOEA) Cell Proliferation Test
BaF3 (EGFR-A763insFQEA) was cultured in RPMI1640 medium containing 10% fetal bovine serum and 2 mM glutamine. The cells were grown at 37° C. in a humidified incubator with 5% CO2.
as §1

BaF3 (EGFR-D770insNPG) = BaF3 (EGFR-D770insNPG) (Homo sapiens, UniProt P00533, INS772GNP, cells depend on it); test: Test 6: BaF3 (EGFR-D770insNPG) cell proliferation test; settings: 72 hours, Cell Titer-Glo, read-out: Test 6 - IC50
Protocol: Test 6: BaF3 (EGFR-D770insNPG) Cell Proliferation Test
BaF3 (EGFR-D770insNPG) was cultured in RPMI1640 medium containing 10% fetal bovine serum and 2 mM glutamine. The cells were grown at 37° C. in a humidified incubator with 5% CO2.
as §1

BaF3 (HER2-P780insGSP) = BaF3 (HER2-P780insGSP) (Homo sapiens, UniProt P04626, DUP778-780, cells depend on it); test: Test 10: BaF3 (HER2-P780insGSP) cell proliferation test; settings: 72 hours, Cell Titer-Glo, read-out: Test 10 - IC50
Protocol: Test 10: BaF3 (HER2-P780insGSP) Cell Proliferation Test
BaF3 (HER2-P780insGSP) was cultured in RPMI1640 medium containing 10% fetal bovine serum and 2 mM glutamine. The cells were grown at 37° C. in a humidified incubator with 5% CO2.
as §1

BaF3 (EGFR-V769insASV) = BaF3 (EGFR-V769insASV) (Homo sapiens, UniProt P00533, DUP767-769, cells depend on it); test: Test 4: BaF3 (EGFR-V769insASV) cell proliferation test; settings: 72 hours, Cell Titer-Glo, read-out: Test 4 - IC50
Protocol: Test 4: BaF3 (EGFR-V769insASV) Cell Proliferation Test
BaF3 (EGFR-V769insASV) was cultured in RPMI1640 medium containing 10% fetal bovine serum and 2 mM glutamine. The cells were grown at 37° C. in a humidified incubator with 5% CO2.
as §1

BaF3 (EGFR-D770insSVD) = BaF3 (EGFR-D770insSVD) (Homo sapiens, UniProt P00533, DUP768-770, cells depend on it); test: Test 2: BaF3 (EGFR-D770insSVD) cell proliferation test; settings: 72 hours, Cell Titer-Glo, read-out: Test 2 - IC50
Protocol: Test 2: BaF3 (EGFR-D770insSVD) Cell Proliferation Test
BaF3 (EGFR-D770insSVD) was cultured in RPMI1640 medium containing 10% fetal bovine serum and 2 mM glutamine. The cells were grown at 37° C. in a humidified incubator with 5% CO2.
as §1

BaF3 (EGFR/S768I) = biological target: T1, BaF3 (EGFR/S768I) (Homo sapiens, UniProt P00533, cells depend on it, form not given); test: Test 19: EGFR/S768I mutant cell line proliferation test; settings: EGFR S768I and EGFR L861Q (tests 19-20), in words
T1 construct: other: EGFR S768I and EGFR L8
Protocol: Test 19: EGFR/S768I Mutant Cell Line Proliferation Test
as §1

BaF3 (EGFR/D770insSVD) = biological target: T2, BaF3 (EGFR/D770insSVD) (Homo sapiens, UniProt P00533, cells depend on it, form not given); test: Test 13: EGFR exon 20 inserted D770insSVD cell proliferation test; settings: A763insFQEA, V769insASV, D770insSVD (tests 13-15), in words
T2 construct: other: A763insFQEA, V769ins
Protocol: Test 13: EGFR Exon 20 Inserted D770insSVD Cell Proliferation Test
as §1

Chain of BaF3 (HER2-G776insVC) (P04626 with tags, fused parts or gaps DELINS776-776VC): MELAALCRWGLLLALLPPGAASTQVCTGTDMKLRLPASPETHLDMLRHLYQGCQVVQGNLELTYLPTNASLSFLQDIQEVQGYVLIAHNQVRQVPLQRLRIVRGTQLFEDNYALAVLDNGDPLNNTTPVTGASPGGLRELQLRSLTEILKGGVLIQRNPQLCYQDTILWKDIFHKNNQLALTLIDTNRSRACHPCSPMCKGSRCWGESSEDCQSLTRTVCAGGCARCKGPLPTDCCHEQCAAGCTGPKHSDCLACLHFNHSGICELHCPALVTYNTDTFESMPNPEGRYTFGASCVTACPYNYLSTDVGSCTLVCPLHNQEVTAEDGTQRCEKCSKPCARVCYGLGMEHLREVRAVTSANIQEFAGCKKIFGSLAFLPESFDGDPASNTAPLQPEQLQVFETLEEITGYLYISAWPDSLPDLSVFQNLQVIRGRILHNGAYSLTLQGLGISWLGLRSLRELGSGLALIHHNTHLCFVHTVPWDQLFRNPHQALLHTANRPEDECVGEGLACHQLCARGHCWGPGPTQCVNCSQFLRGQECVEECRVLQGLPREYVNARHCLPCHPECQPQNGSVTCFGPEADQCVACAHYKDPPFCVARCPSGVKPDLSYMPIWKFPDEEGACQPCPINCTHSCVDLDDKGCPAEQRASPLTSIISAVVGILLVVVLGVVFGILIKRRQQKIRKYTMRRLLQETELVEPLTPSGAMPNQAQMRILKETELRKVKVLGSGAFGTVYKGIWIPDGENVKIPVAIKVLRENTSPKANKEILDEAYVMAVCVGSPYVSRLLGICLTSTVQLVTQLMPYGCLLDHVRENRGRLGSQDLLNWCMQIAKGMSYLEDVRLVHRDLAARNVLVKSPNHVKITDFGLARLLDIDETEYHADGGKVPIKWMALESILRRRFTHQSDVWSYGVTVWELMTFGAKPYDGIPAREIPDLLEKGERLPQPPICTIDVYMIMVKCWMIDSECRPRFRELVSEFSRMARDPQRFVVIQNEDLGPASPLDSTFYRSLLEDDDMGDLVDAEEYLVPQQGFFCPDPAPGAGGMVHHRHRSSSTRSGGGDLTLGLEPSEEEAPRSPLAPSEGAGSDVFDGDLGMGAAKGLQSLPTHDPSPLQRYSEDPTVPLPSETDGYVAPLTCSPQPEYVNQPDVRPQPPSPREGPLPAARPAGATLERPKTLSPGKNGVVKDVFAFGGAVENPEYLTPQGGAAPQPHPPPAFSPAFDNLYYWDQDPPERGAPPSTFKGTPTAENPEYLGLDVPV
Chain of BaF3 (HER2-A775insYVMA) (P04626 with tags, fused parts or gaps DUP772-775): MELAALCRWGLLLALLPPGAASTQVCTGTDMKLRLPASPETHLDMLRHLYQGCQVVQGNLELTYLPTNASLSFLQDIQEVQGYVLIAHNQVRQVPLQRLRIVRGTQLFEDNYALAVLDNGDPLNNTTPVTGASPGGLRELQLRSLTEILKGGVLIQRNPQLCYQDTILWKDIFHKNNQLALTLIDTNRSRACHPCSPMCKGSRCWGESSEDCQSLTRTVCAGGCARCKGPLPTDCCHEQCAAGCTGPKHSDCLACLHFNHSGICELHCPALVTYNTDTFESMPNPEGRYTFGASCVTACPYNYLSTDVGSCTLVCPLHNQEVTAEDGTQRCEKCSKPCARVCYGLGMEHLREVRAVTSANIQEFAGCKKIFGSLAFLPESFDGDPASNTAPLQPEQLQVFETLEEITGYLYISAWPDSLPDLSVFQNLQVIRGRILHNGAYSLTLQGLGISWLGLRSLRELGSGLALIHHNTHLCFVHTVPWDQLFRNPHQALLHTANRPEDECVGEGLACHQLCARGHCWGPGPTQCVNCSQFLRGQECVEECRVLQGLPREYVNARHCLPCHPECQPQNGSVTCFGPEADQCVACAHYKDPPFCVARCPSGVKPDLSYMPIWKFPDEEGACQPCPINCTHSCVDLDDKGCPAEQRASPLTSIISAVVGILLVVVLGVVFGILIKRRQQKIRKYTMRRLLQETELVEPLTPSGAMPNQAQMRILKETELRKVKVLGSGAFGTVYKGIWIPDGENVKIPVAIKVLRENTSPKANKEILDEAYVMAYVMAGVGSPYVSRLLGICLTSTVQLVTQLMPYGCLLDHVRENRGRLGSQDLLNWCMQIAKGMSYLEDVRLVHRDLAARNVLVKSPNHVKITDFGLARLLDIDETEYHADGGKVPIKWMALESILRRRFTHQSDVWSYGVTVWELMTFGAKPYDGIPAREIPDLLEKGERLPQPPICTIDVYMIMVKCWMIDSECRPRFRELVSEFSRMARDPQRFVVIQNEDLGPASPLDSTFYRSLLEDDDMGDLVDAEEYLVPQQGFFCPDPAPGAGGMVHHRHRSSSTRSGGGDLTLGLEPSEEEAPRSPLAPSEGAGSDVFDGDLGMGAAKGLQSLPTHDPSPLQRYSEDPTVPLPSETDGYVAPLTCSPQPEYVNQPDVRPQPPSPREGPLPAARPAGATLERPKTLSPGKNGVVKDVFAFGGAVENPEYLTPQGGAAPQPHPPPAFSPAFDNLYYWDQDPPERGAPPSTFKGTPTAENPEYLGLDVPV
Chain of BaF3 (HER2-P780insGSP) (P04626 with tags, fused parts or gaps DUP778-780): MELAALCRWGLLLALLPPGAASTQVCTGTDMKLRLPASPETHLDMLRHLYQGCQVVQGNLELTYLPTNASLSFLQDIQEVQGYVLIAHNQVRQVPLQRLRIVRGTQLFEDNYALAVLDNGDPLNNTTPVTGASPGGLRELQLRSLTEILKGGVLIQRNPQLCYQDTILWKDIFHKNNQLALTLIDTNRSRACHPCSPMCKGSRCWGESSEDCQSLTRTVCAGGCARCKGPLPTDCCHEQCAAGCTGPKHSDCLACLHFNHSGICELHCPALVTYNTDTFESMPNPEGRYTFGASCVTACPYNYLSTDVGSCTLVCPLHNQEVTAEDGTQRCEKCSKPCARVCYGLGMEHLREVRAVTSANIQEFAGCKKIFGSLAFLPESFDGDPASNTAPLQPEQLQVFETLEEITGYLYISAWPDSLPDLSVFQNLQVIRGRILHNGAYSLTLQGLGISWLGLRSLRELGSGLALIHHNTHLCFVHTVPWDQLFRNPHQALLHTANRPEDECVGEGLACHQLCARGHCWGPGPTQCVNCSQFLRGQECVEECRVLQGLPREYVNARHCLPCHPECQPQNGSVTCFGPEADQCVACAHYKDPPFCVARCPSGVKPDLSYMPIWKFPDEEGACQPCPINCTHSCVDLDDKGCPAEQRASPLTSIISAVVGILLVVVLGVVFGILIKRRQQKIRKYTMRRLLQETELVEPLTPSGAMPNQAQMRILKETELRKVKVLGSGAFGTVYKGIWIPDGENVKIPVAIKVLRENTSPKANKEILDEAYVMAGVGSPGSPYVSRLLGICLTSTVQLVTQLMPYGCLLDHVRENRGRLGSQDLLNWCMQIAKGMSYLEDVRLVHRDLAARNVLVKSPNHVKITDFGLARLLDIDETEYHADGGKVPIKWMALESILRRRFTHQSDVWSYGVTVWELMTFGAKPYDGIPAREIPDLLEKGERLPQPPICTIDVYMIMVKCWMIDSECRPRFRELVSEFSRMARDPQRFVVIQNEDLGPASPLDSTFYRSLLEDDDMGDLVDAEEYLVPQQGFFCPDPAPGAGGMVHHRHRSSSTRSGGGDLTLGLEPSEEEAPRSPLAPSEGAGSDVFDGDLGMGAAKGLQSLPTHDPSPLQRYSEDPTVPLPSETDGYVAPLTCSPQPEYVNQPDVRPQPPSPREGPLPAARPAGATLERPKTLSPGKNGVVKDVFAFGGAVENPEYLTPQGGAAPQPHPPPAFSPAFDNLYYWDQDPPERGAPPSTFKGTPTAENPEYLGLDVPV

GI50 (BaF3 (EGFR-L861Q))	GI50 (BaF3 (HER2-G776insVC))	pIC50 [1]	GI50 (BaF3 (EGFR-S768I))	GI50 (BaF3 (EGFR-N771insH))	GI50 (BaF3 (HER2-A775insYVMA))	GI50 (BaF3 (EGFR-A763insFQEA))	GI50 (BaF3 (EGFR-D770insNPG))	GI50 (BaF3 (HER2-P780insGSP))	GI50 (BaF3 (EGFR-V769insASV))	GI50 (BaF3 (EGFR-D770insSVD))	Compound	activity compared with Osimertinib (AZD9291) against EGFR S768I and EGFR L861Q mutations (BaF3 (EGFR/S768I))	cell activity compared with Osimertinib (AZD9291) against EGFR exon 20 insertion mutations (BaF3 (EGFR/D770insSVD))
10.8 nM	8.36 nM	7.38	13.6 nM	35.6 nM	85.2 nM	43.1 nM	40.9 nM	29.6 nM	88.6 nM	88.7 nM	C=CC(=O)Nc1cc(Nc2ncnc(Oc3ccc(Cl)c(OC)c3)n2)c(OC(F)F)cc1N(C)CCN(C)C [Example 13]		
5.01 nM	1.8 nM	7.82	9.17 nM	15.3 nM	13.9 nM	14.3 nM	12.8 nM	7.59 nM	45.5 nM	48.7 nM	C=CC(=O)Nc1cc(Nc2ncnc(-c3cn(C)c4ccc(Cl)cc34)n2)c(OC)cc1N(C)CCN(C)C [Example 9]		
											C=CC(=O)Nc1cc(Nc2nccc(-c3cn(C)c4ccccc34)n2)c(OCC(F)(F)F)nc1N(C)CCN(C)C.Cl [Compound 32]	superior activity over Osimertinib (AZD9291)	
5.82 nM	2.73 nM	7.40	7.82 nM	18.2 nM	21.8 nM	16.6 nM	22.8 nM	11.6 nM	57.6 nM	30 nM	C=CC(=O)Nc1cc(Nc2ncnc(-c3cn(C)c4ccc(OC)cc34)n2)c(OC)cc1N(C)CCN(C)C [Example 8, N-(2-((2-(dimethylamino)ethyl)(methyl)amino)-4-methoxy-5-((4-(5-methoxy-1-methyl-1H-indol-3-yl)-1,3,5-triazin-2-yl)amino)phenyl)acrylamide]		
											C=CC(=O)Nc1cc(Nc2nccc(-c3cn(C)c4ccccc34)n2)c(OCC(F)(F)F)nc1N(C)CCN(C)C.CS(=O)(=O)O [Compound 31]	superior activity over Osimertinib (AZD9291)	
36.1 nM	9.56 nM	6.74	44.5 nM	146 nM	45.2 nM	183 nM	181 nM	32.6 nM	466 nM	566 nM	C=CC(=O)Nc1cc(Nc2ncnc(-c3cn(C)c4cc(Cl)c(OC)cc34)n2)c(OC)cc1N(C)CCN(C)C [Example 10]		significant superior cell activity over Osimertinib (AZD9291)
17.2 nM	11.4 nM	7.18	29.4 nM	82.5 nM	98.2 nM	57.3 nM	75.3 nM	47.8 nM	121 nM	183 nM	C=CC(=O)Nc1cc(Nc2ncnc(Oc3ccc(Cl)c(OC)c3)n2)c(OC)cc1N(C)CCN(C)C [Example 12]		
